Source: US20050089554A1, “Apparatus and method for enhancing transdermal drug delivery” (priority 2003, published 2005)

Tests used:
[1] = Desmopressin flux through skin (microprojection solid film system and gel pack), from urinary excretion of tritium; format: in vivo, HGPs; details: 5 mg tritiated desmopressin solid film, 2% HEC gel pack; 1 h and 24 h; FIG. 20
Experimental: An experiment was conducted to test the concept of the hydratable system using the peptide desmopressin. A system similar to that presented in Example 2 was provided.
The system included a 2 cm^2 solid film containing 5 mg tritiated desmopressin. The thin film was prepared by casting a 20 mil thick aqueous solution comprised of 10 wt. % HPMC 2910 USP and 20 wt. % glycerol. The film was dried and punched into 2 cm^2 discs. Each disc was imbibed with a 20 wt. % ^3H desmopressin solution and subsequently dried. The solid film was subsequently disposed proximate the top surface of the microprojection member. The gel pack or gel reservoir contained 0.120 mL of 2% HEC (NATROSOL® 250 HHX) in water.
(§1) Following application of the microprojection solid film system in HGPs, the gel pack was placed on top of the microprojection member, as illustrated in FIG. 12. At 1 h and 24 h after application, three (3) systems from each group of HGPs were removed and the residual drug washed form the skin. The amount of the drug penetrated during these times intervals was determined by measuring urinary excretion of tritium (previous studies had shown that in HGPs, 71% of ^3H desmopressin injected intravenously is excreted in urine).

[2] = Urinary excretion of 3H desmopressin injected intravenously (previous studies); format: in vivo; details: hairless, urine, iv, total radioactivity, injected intravenously in HGPs, read-out: fraction excreted in urine
Experimental: as §1

## NC(=O)CC[C@@H]1NC(=O)[C@H](Cc2ccccc2)NC(=O)[C@H](Cc2ccc(O)cc2)NC(=O)CCSSC[C@@H](C(=O)N2CCC[C@H]2C(=O)N[C@H](CCCN=C(N)N)C(=O)NCC(N)=O)NC(=O)[C@H](CC(N)=O)NC1=O [desmopressin]
[1]
  flux through the skin, time dependence: time dependant flux
[2]
  dose excreted: 71%
